Experimental data taken from patent US10881110B2, “Herbicidal compositions comprising isoxazolo[5,4-b]pyridines” (BASF SE, priority 2014, dated 2021).

Assays:
Assay in all cases: greenhouse post-emergence herbicidal test
ABUTH = assay type: in vivo, Abutilon theophrast; set-up: key to herbicidal activity against ABUTH found: rating on a scale from 0 to 100
Procedure, shortened: (§1)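 Combination activity judged against additive expectation by Colby, E=X+Y−(X·Y/100), from 0–100 damage ratings taken 20 days post-spray. Plants at 1–15 cm in loamy sand (69.9% sand) were sprayed with components formulated as 10% w/w emulsion concentrate in water.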

CHEAL = assay type: in vivo, Chenopodium album
Experimental: (§2) The culture containers used were plastic pots containing medium loamy sand with approximately 4.6% of humus and 69.9% sand as substrate. The seeds of the test plants were sown separately for each species.
(§3) For the post-emergence treatment, the test plants were grown to a plant height of from 1 to 15 cm, depending on the plant habit, and only then treated with the active compounds which had been suspended or emulsified in water. To this end, the test plants were either sown directly, and grown in the same containers, or they were first grown separately as seedlings and transplanted into the test containers a few days prior to treatment.
(§4) Depending on the species, the plants were kept at 10-25° C. and 20-35° C., respectively.
(§5) The test period extended over 1 to 3 weeks. During this time, the plants were tended and their response to the individual treatments was evaluated 20 days after treatment except mentioned otherwise.
(§6) Evaluation was carried out using a scale from 0 to 100. 100 means no emergence of the plants, or complete destruction of at least the above-ground parts, and 0 means no damage or normal course of growth.
(§7) The respective stated components A and B, and, if appropriate, C, were formulated as a 10% by weight strength emulsion concentrate and, with addition of the amount of solvent system, introduced into the spray liquor used for applying the active compound. In the examples, the solvent used was water.
(§8) In the examples below, using the method of S. R. Colby (1967) “Calculating synergistic and antagonistic responses of herbicide combinations”, Weeds 15, p. 22 ff., the value E, which is expected if the activity of the individual active compounds is only additive, was calculated. E=X+Y−(X·Y/100)

CONAR = assay type: in vivo, Convolvulus arvensis; set-up: key: rating on a scale from 0 to 100
Experimental: as §2, §3, §4, §5, §6, §7, §8

ERICA = assay type: in vivo, Conyza canadensis; set-up: key to herbicidal activity against ERICA found: rating on a scale from 0 to 100; details: post emergence
Procedure, shortened: as §1

GALAP = assay type: in vivo, Galium aparine; set-up: key to herbicidal activity against GALAP found: rating on a scale from 0 to 100
Procedure, shortened: (§9)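 Post-emergence greenhouse test: plants in loamy sand, sprayed at 1–15 cm height with aqueous spray liquor from 10% emulsion concentrates, kept at 10-25 °C or 20-35 °C by species. Damage scored 0–100 (100 = complete destruction), usually 20 days after treatment. Expected additive effect E from Colby: E=X+Y−(X·Y/100).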

MATCH = assay type: in vivo, Matricaria recutita; set-up: key to herbicidal activity against MATCH found: rating on a scale from 0 to 100
Procedure, shortened: as §1

AMBEL = assay type: in vivo, Ambrosia artemisiifolia; set-up: key: rating on a scale from 0 to 100
Experimental: as §2, §3, §4, §5, §6, §7, §8

POLCO = assay type: in vivo, Polygonum convolvulus; set-up: key to herbicidal activity against POLCO found: rating on a scale from 0 to 100
Procedure, shortened: as §9

SASKR = assay type: in vivo, Salsola kali; set-up: key: scale 0 to 100
Experimental: as §2, §3, §4, §5, §6, §7, §8

VIOAR = assay type: in vivo, Viola arvensis; set-up: key to herbicidal activity against VIOAR found / herbicidal activity against VIOLA found: rating on a scale from 0 to 100; details: post emergence; for herbicidal activity against VIOAR found: B.84 (paraquat-dichloride) 17.5 g/ha, alone or as mixture (composition 1.84)
Procedure, shortened: as §9

ALOMY = assay type: in vivo, Alopecurus myosuroides; set-up: key to herbicidal activity against ALOMY found: rating on a scale from 0 to 100; details: post emergence
Procedure, shortened: as §1

ECHCG = assay type: in vivo, Echinochloa crus-galli; set-up: key to herbicidal activity against ECHCG found / herbicidal activity against ECHCH found: scale 0 to 100
Procedure, shortened: as §1

APESV = assay type: in vivo, Apera spica-venti; set-up: key to herbicidal activity against APESV found: rating on a scale from 0 to 100
Procedure, shortened: as §1

PAPRH = assay type: in vivo, Papaver rhoeas; set-up: key: rating on a scale from 0 to 100; details: B.93 alone 1.5 g/ha a.i.
Procedure, shortened: as §1

IPOHE = assay type: in vivo, Ipomoea hederacea; set-up: key to herbicidal activity against IPOHE found: rating on a scale from 0 to 100; details: post emergence
Procedure, shortened: as §9

GERDI = assay type: in vivo, Geranium dissectum; set-up: key to herbicidal activity against GERDI found: rating on a scale from 0 to 100; details: single active, post emergence
Procedure, shortened: as §1

[1] = post emergence, a.i. g/ha: I.1 62.5, B.69 25, 20 days after treatment
[2] = a.i. g/ha: I.1 31.25, B.69 25, 20 days after treatment
[3] = a.i. g/ha: I.1 62.5, B.69 25, 20 days after treatment
[4] = application rate a.i.: I.1 31.25 g/ha, B.84 (paraquat-dichloride) 17.5 g/ha, alone or as mixture (composition 1.84)
[5] = post emergence, application rate a.i.: I.1 62.5 g/ha, B.84 (paraquat-dichloride) 17.5 g/ha, alone or as mixture (composition 1.84)
[6] = single active, 175 g/ha a.i., post emergence
[7] = single active, 350 g/ha a.i., post emergence
[8] = Abutilon theophrasti, post-emergence, 480 h, read-out: herbicidal activity against ABUTH found
[9] = Echinochloa crus-galli, post-emergence, 480 h, read-out: herbicidal activity against ECHCG found

N#Cc1cc(Br)c(O)c(Br)c1 [B.69, bromoxynil]
herbicidal activity against ABUTH found (ABUTH; [1]): 35% | herbicidal activity against CHEAL found (CHEAL; [2]): 60% | herbicidal activity against CHEAL found (CHEAL; [3]): 60% | herbicidal activity against CONAR found (CONAR; [2]): 50% | herbicidal activity against CONAR found (CONAR; [3]): 50% | herbicidal activity against ERICA found (ERICA; [3]): 30% | herbicidal activity against GALAP found (GALAP; [1]): 50% | herbicidal activity against MATCH found (MATCH; post emergence, a.i. g/ha: I.1 31.25, B.69 25, 20 days after treatment): 0%

CCNc1nc(Cl)nc(NC(C)(C)C)n1 [B.82, terbuthylazine]
herbicidal activity against CHEAL found (CHEAL; a.i. g/ha: I.1 62.5, B.82 31.25, 20 days after treatment): 65% | herbicidal activity against GALAP found (GALAP; post emergence, a.i. g/ha: I.1 62.5, B.82 31.25, 20 days after treatment): 55%

C[n+]1ccc(-c2cc[n+](C)cc2)cc1 [B.84, paraquat-dichloride]
herbicidal activity against AMBEL found (AMBEL; [4]): 90 | herbicidal activity against CONAR found (CONAR; application rate a.i.: I.1 62.5 g/ha, B.84 (paraquat-dichloride) 17.5 g/ha, alone or as mixture (composition 1.84)): 10 | herbicidal activity against ERICA found (ERICA; [4]): 35 | herbicidal activity against GALAP found (GALAP; post emergence, application rate a.i.: I.1 31.25 g/ha, B.84 (paraquat-dichloride) 17.5 g/ha, alone or as mixture (composition 1.84)): 55 | herbicidal activity against MATCH found (MATCH; [5]): 80 | herbicidal activity against POLCO found (POLCO; [5]): 30 | herbicidal activity against SASKR found (SASKR; [4]): 70 | herbicidal activity against VIOAR found (VIOAR; application rate a.i.: I.1 31.25 g/ha): 55 | herbicidal activity against VIOAR found (VIOAR; application rate a.i.: I.1 62.5 g/ha): 55

CCOc1cc(Oc2ccc(C(F)(F)F)cc2Cl)ccc1[N+](=O)[O-] [B.91, oxyfluorfen]
pest or weed control at 100 g/ha (ALOMY; Alopecurus myosuroides, post-emergence, 480 h, single active, 100 g/ha a.i., read-out: herbicidal activity against ALOMY found): 85% | herbicidal activity against AMBEL found (AMBEL; single active, 100 g/ha a.i.): 70 | pest or weed control at 100 g/ha (ECHCG; Echinochloa crus-galli, post-emergence, 480 h, single active, 100 g/ha a.i., post emergence, read-out: herbicidal activity against ECHCG found): 60% | pest or weed control at 100 g/ha (ERICA; Erigeron canadensis, post-emergence, 480 h, single active, 100 g/ha a.i., read-out: herbicidal activity against ERICA found): 0% | pest or weed control at 200 g/ha (ERICA; Erigeron canadensis, post-emergence, 480 h, single active, 200 g/ha a.i., read-out: herbicidal activity against ERICA found): 90%

Cc1nn(-c2cc(NS(C)(=O)=O)c(Cl)cc2Cl)c(=O)n1C(F)F [B.93, sulfentrazone]
pest or weed control at 1.5 g/ha (ALOMY; Alopecurus myosuroides, post-emergence, 480 h, B.93 alone 1.5 g/ha a.i., read-out: herbicidal activity against ALOMY found): 0% | herbicidal activity against AMBEL found (AMBEL; B.93 alone 1.5 g/ha a.i.): 20 | herbicidal activity against AMBEL found (AMBEL; B.93 alone 6 g/ha a.i.): 30 | pest or weed control at 1.5 g/ha (APESV; Apera spica-venti, post-emergence, 480 h, B.93 alone 1.5 g/ha a.i., post emergence, read-out: herbicidal activity against APESV found): 10% | pest or weed control at 1.5 g/ha (GALAP; Galium aparine, post-emergence, 480 h, B.93 alone 1.5 g/ha a.i., post emergence, read-out: herbicidal activity against GALAP found): 45% | pest or weed control at 1.5 g/ha (MATCH; Matricaria chamomilla, post-emergence, 480 h, B.93 alone 1.5 g/ha a.i., post emergence, read-out: herbicidal activity against MATCH found): 0% | pest or weed control at 3 g/ha (MATCH; Matricaria chamomilla, post-emergence, 480 h, B.93 alone 3 g/ha a.i., post emergence, read-out: herbicidal activity against MATCH found): 50% | pest or weed control at 6 g/ha (MATCH; Matricaria chamomilla, post-emergence, 480 h, B.93 alone 6 g/ha a.i., post emergence, read-out: herbicidal activity against MATCH found): 50% | herbicidal activity against PAPRH found (PAPRH): 70 | pest or weed control at 3 g/ha (POLCO; Fallopia convolvulus, post-emergence, 480 h, B.93 alone 3 g/ha a.i., post emergence, read-out: herbicidal activity against POLCO found): 85% | pest or weed control at 6 g/ha (POLCO; Fallopia convolvulus, post-emergence, 480 h, B.93 alone 6 g/ha a.i., post emergence, read-out: herbicidal activity against POLCO found): 85%

CS(=O)(=O)c1ccc(C(=O)C2C(=O)CCCC2=O)c(Cl)c1COCC(F)(F)F [B.106, tembotrione]
pest or weed control at 9.375 g/ha (ERICA; Erigeron canadensis, post-emergence, 480 h, 9.375 g/ha a.i., read-out: herbicidal activity against ERICA found): 90% | pest or weed control at 9.375 g/ha (IPOHE; Ipomoea hederacea, post-emergence, 480 h, 9.375 g/ha a.i., read-out: herbicidal activity against IPOHE found): 70% | pest or weed control at 9.375 g/ha (MATCH; Matricaria chamomilla, post-emergence, 480 h, post emergence, 9.375 g/ha a.i., read-out: herbicidal activity against MATCH found): 65% | herbicidal activity against SASKR found (SASKR; 9.375 g/ha a.i.): 65

COCC(C)N(C(=O)CCl)c1c(C)csc1C (stereo not drawn) [DMTA]
herbicidal activity against ALOMY found (ALOMY; single active, 175 g/ha a.i.): 0 | herbicidal activity against ALOMY found (ALOMY; single active, 350 g/ha a.i.): 45 | herbicidal activity against AMBEL found (AMBEL; single active, 175 g/ha a.i.): 0 | herbicidal activity against AMBEL found (AMBEL; single active, 350 g/ha a.i.): 20 | herbicidal activity against APESV found (APESV; [6]): 95 | herbicidal activity against ECHCG found (ECHCG; [6]): 90 | herbicidal activity against ERICA found (ERICA; single active, 175 g/ha a.i.): 15 | herbicidal activity against GERDI found (GERDI; 175 g/ha a.i.): 30 | herbicidal activity against GERDI found (GERDI; 350 g/ha a.i.): 60 | herbicidal activity against IPOHE found (IPOHE; single active, 350 g/ha a.i.): 25 | herbicidal activity against MATCH found (MATCH; [6]): 30 | herbicidal activity against MATCH found (MATCH; [7]): 30 | herbicidal activity against POLCO found (POLCO; [6]): 0 | herbicidal activity against POLCO found (POLCO; [7]): 25 | herbicidal activity against VIOLA found (VIOAR; single active, 175 g/ha a.i.): 0

COc1nc(C)nc(=NC(=O)NS(=O)(=O)c2ccccc2C(=O)O)[nH]1 [metsulfuron]
pest or weed control at 0.125 g/ha (ABUTH; [8]): 20% | pest or weed control at 0.25 g/ha (ABUTH; [8]): 80% | herbicidal activity against AMBEL found (AMBEL; metsulfuron alone 0.125 g/ha a.i.): 0 | pest or weed control at 0.25 g/ha (APESV; Apera spica-venti, post-emergence, 480 h, read-out: herbicidal activity against APESV found): 30% | pest or weed control at 0.125 g/ha (ECHCG; [9]): 0% | pest or weed control at 0.25 g/ha (ECHCG; [9]): 25% | pest or weed control at 0.125 g/ha (GALAP; Galium aparine, post-emergence, 480 h, read-out: herbicidal activity against GALAP found): 10% | pest or weed control at 0.125 g/ha (MATCH; Matricaria chamomilla, post-emergence, 480 h, read-out: herbicidal activity against MATCH found): 0% | pest or weed control at 0.125 g/ha (POLCO; Fallopia convolvulus, post-emergence, 480 h, read-out: herbicidal activity against POLCO found): 30%
